We go through 13 compounds from patent US20190135857A1, “TR[…] HUMAN IMMUNODEFICIENCY VIRUS REPLICATION” (priority 2016, published 2019).

In the assay the test system is recombinant NL4-3 virus (nef section replaced with Renilla luciferase gene, Gag P373S). Description: HIV Cell Culture Assay. The assay is classed as cell-based. The conditions noted are these: NL43. Here is the method: MT-2 cells and 293T cells were obtained from the NIH AIDS Research and Reference Reagent Program. MT-2 cells were propagated in RPMI 1640 media supplemented with 10% heat inactivated fetal bovine serum, […]. The 293T cells were propagated in DMEM media supplemented with 10% heat inactivated fetal bovine serum (FBS), 100 units/ml penicillin G and 100 μg/ml streptomycin. The proviral DNA clone of NL4-3 was obtained from the NIH AIDS Research and Reference Reagent Program. A recombinant NL4-3 virus, in which a section of the nef gene from NL4-3 was replaced with the Renilla luciferase gene, was used as a reference virus. In addition, residue Gag P373 was converted to P373S. Briefly, the recombinant virus was prepared by transfection of the altered proviral clone of NL4-3. Transfections were performed in 293T cells using LipofectAMINE PLUS from Invitrogen (Carlsbad, Calif.), according to manufacturer's instruction. The virus was titered in MT-2 cells using luciferase enzyme activity as a marker. Luciferase was quantitated using the Dual Luciferase kit from Promega (Madison, Wis.), with modifications to the manufacturer's protocol. The diluted Passive Lysis solution was pre-mixed with the re-suspended Luciferase Assay Reagent and the re-suspended Stop & Glo Substrate (2:1:1 ratio). Fifty (50) μL of the mixture was added to each aspirated well on assay plates and luciferase activity was measured immediately on a Wallac TriLux (Perkin-Elmer). Antiviral activities of inhibitors toward the recombinant virus were quantified by measuring luciferase activity in cells infected for 4-5 days with NLRluc recombinants in the presence serial dilutions of the inhibitor. Note that some of the data is provided in abbreviated exponential form such that, for example, 2.53E−3, is equivalent to 2.53×10^−3.
Take `CC(C)[C@@H]1CC[C@]2(NC(=O)NCCN(C)C)CC[C@]3(C)[C@H](CC[C@@H]4[C@@]5(C)CC[C@@H](c6ccc(C(=O)O)cc6)C(C)(C)[C@@H]5CC[C@]43C)[C@@H]12` (single isomer, unassigned) [Example B5]: the EC50 is 5.16 nM.
As to `CC(C)[C@@H]1CC[C@]2(NC(=O)NCCCN(C)C)CC[C@]3(C)[C@H](CC[C@@H]4[C@@]5(C)CC[C@@H](c6ccc(C(=O)O)cc6)C(C)(C)[C@@H]5CC[C@]43C)[C@@H]12` (single isomer, unassigned) [Example B6], the EC50 worked out at 5.13 nM.
As to `CC(C)[C@@H]1CC[C@]2(NC(=O)OCCN(C)C)CC[C@]3(C)[C@H](CC[C@@H]4[C@@]5(C)CC[C@@H](c6ccc(C(=O)O)cc6)C(C)(C)[C@@H]5CC[C@]43C)[C@@H]12` (single isomer, unassigned) [Example B7], the EC50 was 6.45 nM.
For `CC(C)[C@@H]1CC[C@]2(NC(=O)OCCCN(C)C)CC[C@]3(C)[C@H](CC[C@@H]4[C@@]5(C)CC[C@@H](c6ccc(C(=O)O)cc6)C(C)(C)[C@@H]5CC[C@]43C)[C@@H]12` (single isomer, unassigned) [Example B8], the EC50 was found to be 4.49 nM.
With `CC(C)[C@@H]1CC[C@]2(NC(=O)CN(C)C)CC[C@]3(C)[C@H](CC[C@@H]4[C@@]5(C)CC[C@@H](c6ccc(C(=O)O)cc6)C(C)(C)[C@@H]5CC[C@]43C)[C@@H]12` (single isomer, unassigned) [Example B9], the 50% effective concentration (EC50) was determined as 10 nM.
To `CC(C)[C@@H]1CC[C@]2(NC(=O)CCN(C)C)CC[C@]3(C)[C@H](CC[C@@H]4[C@@]5(C)CC[C@@H](c6ccc(C(=O)O)cc6)C(C)(C)[C@@H]5CC[C@]43C)[C@@H]12` (single isomer, unassigned) [Example B10] belongs 3.81 nM.
To `CC(C)[C@@H]1CC[C@]2(NC(=O)CCCN(C)C)CC[C@]3(C)[C@H](CC[C@@H]4[C@@]5(C)CC[C@@H](c6ccc(C(=O)O)cc6)C(C)(C)[C@@H]5CC[C@]43C)[C@@H]12` (single isomer, unassigned) [Example B11] belongs 5.94 nM; to `CC(C)[C@@H]1CC[C@]2(NCCN3C[C@@H]4C[C@H]3CS4(=O)=O)CC[C@]3(C)[C@H](CC[C@@H]4[C@@]5(C)CC[C@@H](c6ccc(C(=O)O)cc6)C(C)(C)[C@@H]5CC[C@]43C)[C@@H]12` (single isomer, unassigned) [Example B12], 0.605 nM; to `CC(C)[C@@H]1CC[C@]2(C(=O)O)CC[C@]3(C)[C@H](CC[C@@H]4[C@@]5(C)CC[C@@H](c6ccc(C(=O)O)cc6)C(C)(C)[C@@H]5CC[C@]43C)[C@@H]12` [Example B1, (1S,3aS,5aR,5bR,7aS,9R,11aS,11bR,13aR,13bR)-9-(4-carboxyphenyl)-1-isopropyl-5a,5b,8,8,8,11a-pentamethylicosahydro-1H-cyclopenta[a]chrysene-3a-carboxylic acid], 10 nM.
Turning to `CC(C)[C@@H]1CC[C@]2(C(=O)NCCN(C)C)CC[C@]3(C)[C@H](CC[C@@H]4[C@@]5(C)CC[C@@H](c6ccc(C(=O)O)cc6)C(C)(C)[C@@H]5CC[C@]43C)[C@@H]12` [Example B2, 4-((1S,3aS,5aR,5bR,7aS,9R,11aS,11bR,13aR,13bR)-3a-((2-(dimethylamino)ethyl)carbamoyl)-1-isopropyl-5a,5b,8,8,11a-pentamethylicosahydro-1H-cyclopenta[a]chrysen-9-yl)benzoic acid], the EC50 amounted to 2.53 nM.
Under `CC(C)[C@@H]1CC[C@]2(C(=O)NCCCN(C)C)CC[C@]3(C)[C@H](CC[C@@H]4[C@@]5(C)CC[C@@H](c6ccc(C(=O)O)cc6)C(C)(C)[C@@H]5CC[C@]43C)[C@@H]12` [Example B3, 4-((1S,3aS,5aR,5bR,7aS,9R,11aS,11bR,13aR,13bR)-3a-((3-(dimethylamino)propyl)carbamoyl)-1-isopropyl-5a,5b,8,8,11a-pentamethylicosahydro-1H-cyclopenta[a]chrysen-9-yl)benzoic acid] stands 2.33 nM; under `CC(C)[C@@H]1CC[C@]2(N)CC[C@]3(C)[C@H](CC[C@@H]4[C@@]5(C)CC[C@@H](c6ccc(C(=O)O)cc6)C(C)(C)[C@@H]5CC[C@]43C)[C@@H]12` [Example B4, 4-((1S,3aS,5aR,5bR,7aS,9R,11aS,11bR,13aR,13bR)-3a-amino-1-isopropyl-5a,5b,8,8,11a-pentamethylicosahydro-1H-cyclopenta[a]chrysen-9-yl)benzoic acid], 4.53 nM; under `CC(C)[C@@H]1CC[C@]2(NCCN3CCC(S(C)(=O)=O)CC3)CC[C@]3(C)[C@H](CC[C@@H]4[C@@]5(C)CC[C@@H](c6ccc(C(=O)O)cc6)C(C)(C)[C@@H]5CC[C@]43C)[C@@H]12` [Example B13, 4-((1S,3aS,5aR,5bR,7aS,9R,11aS,11bR,13aR,13bR)-1-isopropyl-5a,5b,8,8,11a-pentamethyl-3a-((2-(4-(methylsulfonyl)piperidin-1-yl)ethyl)amino)icosahydro-1H-cyclopenta[a]chrysen-9-yl)benzoic acid], 1.58 nM.

The EC50 is the concentration giving half of the maximal effect.
